Where only a bound is given, the exact number is not on record here.

System in the first data set: not listed separately
Briefly: oral toxicity in mice (LD50, mortality over 14 days). To be noted: mouse, in vivo, po, LD50, oral (esophageal tube), male mice, groups of 10 to 20, 14 days; Table II. Here is the method: (§1) The toxicity of the products to be studied was investigated by the oral administration, using an esophageal tube, of each of the said products to male mice with a body weight of 18 to 22 g, divided into groups each containing 10 to 20 animals. The mortality was recorded over a 14-day period.
On to `O=C(c1cccnc1)N1CCN(c2ccccc2)CC1` [Ex. 27], for which the LD50 at 336 h is more than 1000 mg/kg.

With `O=C(c1cccnc1)N1CCN(c2ccc(F)cc2)CC1` [Ex. 10, 4-(4-fluorophenyl)-1-nicotinoylpiperazine], the LD50 at 336 h is 600 mg/kg.

Take `Cc1cc(Cl)ccc1N1CCN(C(=O)c2cccnc2)CC1` [Ex. 22, 4-(4-chloro-2-methylphenyl)-1-nicotinoylpiperazine]: the LD50 at 336 h was 540 mg/kg.

In turn, `Cc1ccc(Cl)cc1N1CCN(C(=O)c2cccnc2)CC1` [Ex. 24, 4-(5-chloro-2-methylphenyl)-1-nicotinoylpiperazine] showed an LD50 at 336 h of more than 1000 mg/kg.

Regarding `Cc1ccccc1N1CCN(C(=O)c2cccnc2)CC1` [Ex. 14], the LD50 at 336 h was more than 1000 mg/kg.

In turn, `O=C(c1cccnc1)N1CCN(c2ccccc2Cl)CC1` [Ex. 4] displayed an LD50 at 336 h of more than 1000 mg/kg.

Consider `CC(=O)c1ccc(N2CCN(C(=O)c3cccnc3)CC2)cc1` [Ex. 20], for which the LD50 at 336 h is more than 1000 mg/kg.

As for `Cc1cccc(Cl)c1N1CCN(C(=O)c2cccnc2)CC1` [Ex. 26], the LD50 at 336 h was more than 1000 mg/kg.

The compound `Cc1cccc(C)c1N1CCN(C(=O)c2cccnc2)CC1` [Ex. 30] returned an LD50 at 336 h of more than 1000 mg/kg.

For `O=C(c1cccnc1)N1CCN(c2cccc(Cl)c2)CC1` [Ex. 2, 4-(3-chlorophenyl)-1-nicotinoylpiperazine], the LD50 at 336 h turned out to be 501 mg/kg.

`O=C(c1cccnc1)N1CCN(c2ccc(C(F)(F)F)cc2)CC1` [Ex. 7]: the LD50 at 336 h was more than 1000 mg/kg.

Staying with this data set, now noted: mouse, in vivo, po, LD50, per os, male mice; repeated in Table IV.
As for `Cc1cc(Cl)ccc1N1CCN(C(=O)c2cccnc2)CC1` [Ex. 22, 4-(4-chloro-2-methylphenyl)-1-nicotinoylpiperazine], the LD50 at 336 h turned out to be 540 mg/kg.

Compound `Cc1ccc(Cl)cc1N1CCN(C(=O)c2cccnc2)CC1` [Ex. 24, 4-(5-chloro-2-methylphenyl)-1-nicotinoylpiperazine] registered an LD50 at 336 h of more than 1000 mg/kg.

The compound `Cc1ccccc1N1CCN(C(=O)c2cccnc2)CC1` [Ex. 14] showed an LD50 at 336 h of more than 1000 mg/kg.

Another data set has as its system male mice. Described as above. To be noted: oral (esophageal tube), male mice, groups of 10 to 20, 14 days; Table II. Here is the method: as §1
`O=C(c1cccnc1)N1CCN(c2ccccc2)CC1` [Ex. 28] returned an LD50 of more than 1000 mg/kg.

In the next data set the test system is convulsions induced by pentetrazole. The data set can be described thus: animal or person. To be noted: LD50 per os/ED50 per os, PTZ convulsions. An excerpt:
(§2) The anticonvulsant properties were investigated on male mice, thirty minutes after the oral administration of the substances to be studied, by the induction of convulsive seizures.
As for `Cc1cc(Cl)ccc1N1CCN(C(=O)c2cccnc2)CC1` [Ex. 22, 4-(4-chloro-2-methylphenyl)-1-nicotinoylpiperazine], the “Therapeutic index PTZ (LD50/ED50)” value was found to be 9.8.

Take `Cc1ccc(Cl)cc1N1CCN(C(=O)c2cccnc2)CC1` [Ex. 24, 4-(5-chloro-2-methylphenyl)-1-nicotinoylpiperazine]: the “Therapeutic index PTZ (LD50/ED50)” value is listed as more than 15.9.

The data set is the same for the next values; noted with them: Mus musculus, po, 0.5 h, read-out: ED50 in respect of convulsions induced by PTZ, per os, male mice, 30 min after administration, pentetrazole 125 mg/kg i.p.; dose protecting 50% of animals.
With `O=C(c1cccnc1)N1CCN(c2ccccc2)CC1` [Ex. 27], the ED50 turned out to be 156 mg/kg.

In the case of `O=C(c1cccnc1)N1CCN(c2ccc(F)cc2)CC1` [Ex. 10, 4-(4-fluorophenyl)-1-nicotinoylpiperazine], the ED50 stood at 62 mg/kg.

For `Cc1ccc(Cl)cc1N1CCN(C(=O)c2cccnc2)CC1` [Ex. 24, 4-(5-chloro-2-methylphenyl)-1-nicotinoylpiperazine], the ED50 is 63 mg/kg.

Take `O=C(c1cccnc1)N1CCN(c2ccccc2Cl)CC1` [Ex. 4]: the ED50 stood at 160 mg/kg.

In the case of `CC(=O)c1ccc(N2CCN(C(=O)c3cccnc3)CC2)cc1` [Ex. 20], the ED50 was more than 200 mg/kg.

In the case of `Cc1cccc(Cl)c1N1CCN(C(=O)c2cccnc2)CC1` [Ex. 26], the ED50 was more than 200 mg/kg.

As for `Cc1cccc(C)c1N1CCN(C(=O)c2cccnc2)CC1` [Ex. 30], the ED50 is 138 mg/kg.

Take `O=C(c1cccnc1)N1CCN(c2cccc(Cl)c2)CC1` [Ex. 2, 4-(3-chlorophenyl)-1-nicotinoylpiperazine]: the ED50 is 50 mg/kg.

Turning to `O=C(c1cccnc1)N1CCN(c2ccc(C(F)(F)F)cc2)CC1` [Ex. 7], the ED50 is more than 200 mg/kg.

Staying with this data set, now noted: mouse, in vivo, po.
`CCOc1cccc(N2CCN(C(=O)c3cccnc3)CC2)c1` [Ex. 19]: the “Therapeutic index PTZ (LD50/ED50)” value turned out to be 7.0.

`Cc1ccccc1N1CCN(C(=O)c2cccnc2)CC1` [Ex. 14]: the “Therapeutic index PTZ (LD50/ED50)” value was more than 10.0.

Still in this data set, the particulars now being: po, 0.5 h.
As for `CCOc1cccc(N2CCN(C(=O)c3cccnc3)CC2)c1` [Ex. 19], the “ED50 in respect of convulsions induced by PTZ” value (“ED50 … by PTZ” for short) was determined as 142 mg/kg.

In the case of `Cc1cc(Cl)ccc1N1CCN(C(=O)c2cccnc2)CC1` [Ex. 22, 4-(4-chloro-2-methylphenyl)-1-nicotinoylpiperazine], the “ED50 … by PTZ” value is given as 55 mg/kg.

`Cc1ccccc1N1CCN(C(=O)c2cccnc2)CC1` [Ex. 14]: the “ED50 … by PTZ” value came to 107 mg/kg.

On to `O=C(c1cccnc1)N1CCN(c2ccccc2)CC1` [Ex. 28], for which the “ED50 … by PTZ” value was more than 200 mg/kg.

The subject of the next data set is convulsions induced by supra maximal electroshock (MCE). The data set can be described thus: animal or person. To be noted: LD50 per os/ED50 per os, MCE convulsions. Here is the method: as §2
These seizures are caused either by the intraperitoneal injection of pentetrazole (125 mg/kg) or by electrical stimulation of the cornea (supra maximal electroshock, abbreviated to MCE).
As for `CCOc1cccc(N2CCN(C(=O)c3cccnc3)CC2)c1` [Ex. 19], the “Therapeutic index MCE (LD50/ED50)” value stood at 6.7.

For the compound `Cc1cc(Cl)ccc1N1CCN(C(=O)c2cccnc2)CC1` [Ex. 22, 4-(4-chloro-2-methylphenyl)-1-nicotinoylpiperazine], the “Therapeutic index MCE (LD50/ED50)” value turned out to be 6.2.

Take `Cc1ccc(Cl)cc1N1CCN(C(=O)c2cccnc2)CC1` [Ex. 24, 4-(5-chloro-2-methylphenyl)-1-nicotinoylpiperazine]: the “Therapeutic index MCE (LD50/ED50)” value is more than 12.0.

Still in this data set, the particulars now being: Mus musculus, po, 0.5 h, read-out: ED50 in respect of convulsions induced by MCE, per os, male mice, 30 min after administration, electrical stimulation of the cornea; dose protecting 50% of animals.
Take `O=C(c1cccnc1)N1CCN(c2ccccc2)CC1` [Ex. 27]: the ED50 is more than 200 mg/kg.

On to `O=C(c1cccnc1)N1CCN(c2ccc(F)cc2)CC1` [Ex. 10, 4-(4-fluorophenyl)-1-nicotinoylpiperazine], for which the ED50 is 75 mg/kg.

In the case of `Cc1ccc(Cl)cc1N1CCN(C(=O)c2cccnc2)CC1` [Ex. 24, 4-(5-chloro-2-methylphenyl)-1-nicotinoylpiperazine], the ED50 worked out at 83 mg/kg.

`O=C(c1cccnc1)N1CCN(c2ccccc2Cl)CC1` [Ex. 4]: the ED50 was found to be 200 mg/kg.

Consider `CC(=O)c1ccc(N2CCN(C(=O)c3cccnc3)CC2)cc1` [Ex. 20], for which the ED50 was more than 200 mg/kg.

Turning to `Cc1cccc(Cl)c1N1CCN(C(=O)c2cccnc2)CC1` [Ex. 26], the ED50 was more than 200 mg/kg.

In the case of `O=C(c1cccnc1)N1CCN(c2cccc(Cl)c2)CC1` [Ex. 2, 4-(3-chlorophenyl)-1-nicotinoylpiperazine], the ED50 was determined as 78 mg/kg.

In the case of `O=C(c1cccnc1)N1CCN(c2ccc(C(F)(F)F)cc2)CC1` [Ex. 7], the ED50 is more than 200 mg/kg.

The same data set, now with this note: mouse, in vivo, po.
Turning to `Cc1ccccc1N1CCN(C(=O)c2cccnc2)CC1` [Ex. 14], the “Therapeutic index MCE (LD50/ED50)” value is recorded as less than 5.0.

The data set is the same for the next values; noted with them: po, 0.5 h.
`CCOc1cccc(N2CCN(C(=O)c3cccnc3)CC2)c1` [Ex. 19]: the “ED50 in respect of convulsions induced by MCE” value (“ED50 … by MCE” for short) is recorded as 150 mg/kg.

As to `Cc1cc(Cl)ccc1N1CCN(C(=O)c2cccnc2)CC1` [Ex. 22, 4-(4-chloro-2-methylphenyl)-1-nicotinoylpiperazine], the “ED50 … by MCE” value is 87 mg/kg.

With `Cc1ccccc1N1CCN(C(=O)c2cccnc2)CC1` [Ex. 14], the “ED50 … by MCE” value was more than 200 mg/kg.

For the compound `O=C(c1cccnc1)N1CCN(c2ccccc2)CC1` [Ex. 28], the “ED50 … by MCE” value is more than 200 mg/kg.

System in another data set: not listed separately
Briefly: in vivo. As to conditions: mouse, rota-rod, po, per os, male mice, Rota-rod 30 min after administration; dose causing 50% of animals to fall; read-out: TD50 (50% neurotoxic dose). The class given is in vivo. The source says: (§3) The animals (divided into groups each containing ten male mice per dose and per product) are installed on the rod and their fall is observed over the next two minutes.
In the case of `Cc1ccc(Cl)cc1N1CCN(C(=O)c2cccnc2)CC1` [Ex. 24, 4-(5-chloro-2-methylphenyl)-1-nicotinoylpiperazine], the TD50 at 0.5 h turned out to be 525 mg/kg.

In the case of `Cc1ccccc1N1CCN(C(=O)c2cccnc2)CC1` [Ex. 14], the TD50 at 0.5 h worked out at 635 mg/kg.

The test system of the next data set is male mice. The data set can be described thus: in vivo. To be noted: TD50 per os/ED50 per os, MCE convulsions. The class given is in vivo.
From the text: as §3
On to `Cc1cc(Cl)ccc1N1CCN(C(=O)c2cccnc2)CC1` [Ex. 22, 4-(4-chloro-2-methylphenyl)-1-nicotinoylpiperazine], for which the “Protection index MCE (TD50/ED50)” value came to 3.4.

In the case of `Cc1ccc(Cl)cc1N1CCN(C(=O)c2cccnc2)CC1` [Ex. 24, 4-(5-chloro-2-methylphenyl)-1-nicotinoylpiperazine], the “Protection index MCE (TD50/ED50)” value turned out to be 6.3.

Still in this data set, the particulars now being: TD50 per os/ED50 per os, PTZ convulsions.
In the case of `Cc1cc(Cl)ccc1N1CCN(C(=O)c2cccnc2)CC1` [Ex. 22, 4-(4-chloro-2-methylphenyl)-1-nicotinoylpiperazine], the “Protection index PTZ (TD50/ED50)” value is 5.4.

Take `Cc1ccc(Cl)cc1N1CCN(C(=O)c2cccnc2)CC1` [Ex. 24, 4-(5-chloro-2-methylphenyl)-1-nicotinoylpiperazine]: the “Protection index PTZ (TD50/ED50)” value is 8.3.

Still in this data set, the particulars now being: mouse, in vivo, po.
Turning to `CCOc1cccc(N2CCN(C(=O)c3cccnc3)CC2)c1` [Ex. 19], the “Protection index MCE (TD50/ED50)” value came to 1.7 and the “Protection index PTZ (TD50/ED50)” value is reported as 1.8.

In the case of `Cc1ccccc1N1CCN(C(=O)c2cccnc2)CC1` [Ex. 14], the “Protection index MCE (TD50/ED50)” value is on record as less than 3.0 and the “Protection index PTZ (TD50/ED50)” value is 5.9.

Staying with this data set, now noted: per os, male mice, Rota-rod 30 min after administration; dose causing 50% of animals to fall; 30 min.
For `CCOc1cccc(N2CCN(C(=O)c3cccnc3)CC2)c1` [Ex. 19], the “TD50 (50% neurotoxic dose)” value is on record as 250 mg/kg.

Take `Cc1cc(Cl)ccc1N1CCN(C(=O)c2cccnc2)CC1` [Ex. 22, 4-(4-chloro-2-methylphenyl)-1-nicotinoylpiperazine]: the “TD50 (50% neurotoxic dose)” value amounted to 300 mg/kg.

Values taken from patent US4880807A, “Nicotinoylpiperazines useful for treatment of convulsions” (Institut De Recherches Chimiques et Biologiques Appliquees …, priority 1987, dated 1989).
